Key:
[1] = Compound was evaluated for in vitro immunosuppressive activity in the interleukin-2 reporter gene assay (IL2-RG); assay type: functional
Mus musculus = organism: Mus musculus; assay: Compound was evaluated for in vitro immunosuppressive activity in the mouse mixed lymphocyte reaction (MLR-M); assay type: functional
[2] = target: Peptidyl-prolyl cis-trans isomerase A (Homo sapiens, UniProt P62937); assay: Compound was evaluated for in vitro binding affinity to cyclophilin A (CyP-A)
Peptidyl-prolyl cis-trans isomerase A, sequence (P62937 whole entry): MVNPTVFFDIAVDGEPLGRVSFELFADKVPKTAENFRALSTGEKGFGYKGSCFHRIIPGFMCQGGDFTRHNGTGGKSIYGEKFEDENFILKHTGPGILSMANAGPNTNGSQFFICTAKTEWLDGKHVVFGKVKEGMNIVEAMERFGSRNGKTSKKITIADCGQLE

IC50 [1] | IC50 (Mus musculus) | IC50 [2] | Compound
14 nM | 46 nM | 16 nM | C/C=C/C[C@@H](C)[C@@H](O)[C@H]1C(=O)N[C@@H](CC)C(=O)N(C)CC(=O)N(C)[C@@H](C[C@@H](C)CC)C(=O)N[C@@H](C(C)C)C(=O)N(C)[C@@H](CC(C)C)C(=O)N[C@@H](C)C(=O)N[C@H](C)C(=O)N(C)[C@@H](CC(C)C)C(=O)N(C)[C@@H](CC(C)C)C(=O)N(C)[C@@H](C(C)C)C(=O)N1C
17 nM | 45 nM | 2.3 nM | C/C=C/C[C@@H](C)[C@@H](O)[C@H]1C(=O)NC(CC)C(=O)N(C)CC(=O)N(C)[C@@H](C[C@@H](C)CC)C(=O)N[C@@H](C(C)C)C(=O)N(C)[C@@H](CC(C)C)C(=O)N[C@@H](C)C(=O)N[C@H](C)C(=O)N(C)[C@@H](CC(C)C)C(=O)N(C)[C@@H](CC(C)C)C(=O)N(C)C(C(C)C)C(=O)N1C (single isomer, unassigned)

Reference: ChEMBL document CHEMBL1127383, “Improved binding affinity for cyclophilin A by a cyclosporin derivative singly modified at its effector domain” (J Med Chem, 1994)
